# PubChem BioAssay AID2060503 (Molecular Pharmacology Branch, DTP, NCI, 2025)
# System: 817829-284-R-J1-PDC complex spheroids, viability
# Assay: Anticancer human tumor 817829-284-R-J1-PDC patient-derived colon adenocarcinoma cell line growth inhibition [GQUAD]
# Details: for IC50: curve of first compound; for viability, T/C: stronger effect = lower value
# Method in brief: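 Tumor cells were grown as complex spheroids with HUVEC endothelial cells and mesenchymal stem cells as stroma. G-quadruplex stabilizers were combined with targeted agents over half-log dilutions from near the clinical Cmax, or from 10 microM.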
# [1] = second compound 0.0316 µM, first compound 0.0316 µM
# [2] = second compound 0.0316 µM, first compound 0.1 µM
# [3] = second compound 0.0316 µM, first compound 0.316 µM
# [4] = second compound 0.0316 µM, first compound 1 µM
# [5] = second compound 0.0316 µM, first compound 3.16 µM
# [6] = second compound 0.0316 µM, first compound 10 µM
# [7] = second compound 0.1 µM, first compound 0.0316 µM
# [8] = second compound 0.1 µM, first compound 0.1 µM
# [9] = second compound 0.1 µM, first compound 0.316 µM
# [10] = second compound 0.1 µM, first compound 1 µM
# [11] = second compound 0.1 µM, first compound 3.16 µM
# [12] = second compound 0.1 µM, first compound 10 µM
# [13] = second compound 0.316 µM, first compound 0.0316 µM
# [14] = second compound 0.316 µM, first compound 0.1 µM
# [15] = second compound 0.316 µM, first compound 0.316 µM
# [16] = second compound 0.316 µM, first compound 1 µM
# [17] = second compound 0.316 µM, first compound 3.16 µM
# [18] = second compound 0.316 µM, first compound 10 µM
# [19] = second compound 1 µM, first compound 0.0316 µM
# [20] = second compound 1 µM, first compound 0.1 µM
# [21] = second compound 1 µM, first compound 0.316 µM
# [22] = second compound 1 µM, first compound 1 µM
# [23] = second compound 1 µM, first compound 3.16 µM
# [24] = second compound 1 µM, first compound 10 µM
# [25] = second compound 3.16 µM, first compound 0.0316 µM
# [26] = second compound 3.16 µM, first compound 0.1 µM
# [27] = second compound 3.16 µM, first compound 0.316 µM
# [28] = second compound 3.16 µM, first compound 1 µM
# [29] = second compound 3.16 µM, first compound 3.16 µM
# [30] = second compound 3.16 µM, first compound 10 µM
# [31] = second compound 10 µM, first compound 0.0316 µM
# [32] = second compound 10 µM, first compound 0.1 µM
# [33] = second compound 10 µM, first compound 0.316 µM
# [34] = second compound 10 µM, first compound 1 µM
# [35] = second compound 10 µM, first compound 3.16 µM
# [36] = second compound 10 µM, first compound 10 µM
# 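Note: spheroids exposed to agents for 7 days before readout.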
# 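Throughout, for viability, T/C: percent viability relative to DMSO vehicle control taken as 100%.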
smiles,measurement,setting,value
CC1COCCN1c1cc(C2(S(C)(=N)=O)CC2)nc(-c2ccnc3[nH]ccc23)n1 (stereo not drawn) + Cc1[nH]c2ccc(F)cc2c1-c1nc2c3cccnc3c3ncccc3c2[nH]1,IC50,second compound 0.0316 µM,699 nM
same,IC50,second compound 0.1 µM,701 nM
same,IC50,second compound 0.316 µM,683 nM
same,IC50,second compound 1 µM,709 nM
same,IC50,second compound 3.16 µM,508 nM
same,IC50,second compound 10 µM,< 31.6 nM
same,"viability, T/C",[1],110%
same,"viability, T/C",[2],95.6%
same,"viability, T/C",[3],106%
same,"viability, T/C",[4],25.7%
same,"viability, T/C",[5],11.6%
same,"viability, T/C",[6],8.11%
same,"viability, T/C",[7],96.8%
same,"viability, T/C",[8],107%
same,"viability, T/C",[9],93.4%
same,"viability, T/C",[10],30.4%
same,"viability, T/C",[11],10.7%
same,"viability, T/C",[12],7.69%
same,"viability, T/C",[13],94.7%
same,"viability, T/C",[14],106%
same,"viability, T/C",[15],95.3%
same,"viability, T/C",[16],27.5%
same,"viability, T/C",[17],11.1%
same,"viability, T/C",[18],8.75%
same,"viability, T/C",[19],89.8%
same,"viability, T/C",[20],117%
same,"viability, T/C",[21],105%
same,"viability, T/C",[22],27.2%
same,"viability, T/C",[23],10.7%
same,"viability, T/C",[24],6.79%
same,"viability, T/C",[25],97.7%
same,"viability, T/C",[26],92%
same,"viability, T/C",[27],77.4%
same,"viability, T/C",[28],10.7%
same,"viability, T/C",[29],6.38%
same,"viability, T/C",[30],4.15%
same,"viability, T/C",[31],45.7%
same,"viability, T/C",[32],39.1%
same,"viability, T/C",[33],30.1%
same,"viability, T/C",[34],4.8%
same,"viability, T/C",[35],4.1%
same,"viability, T/C",[36],2.86%
Cc1[nH]c2ccccc2c1CCNCc1ccc(/C=C/C(=O)NO)cc1 + CN(C)c1ccc(Nc2c3ccc(NC(=O)CCN4CCCC4)cc3nc3cc(NC(=O)CCN4CCCC4)ccc23)cc1,IC50,second compound 0.0316 µM,52.1 nM
same,IC50,second compound 0.1 µM,45.7 nM
same,IC50,second compound 0.316 µM,47.1 nM
same,IC50,second compound 1 µM,53.3 nM
same,IC50,second compound 3.16 µM,47.7 nM
same,IC50,second compound 10 µM,19.1 nM
same,"viability, T/C","second compound 0.0316 µM, first compound 0.000999 µM",108%
same,"viability, T/C","second compound 0.0316 µM, first compound 0.00316 µM",99.3%
same,"viability, T/C","second compound 0.0316 µM, first compound 0.00999 µM",126%
same,"viability, T/C",[1],86.1%
same,"viability, T/C","second compound 0.0316 µM, first compound 0.0999 µM",3.89%
same,"viability, T/C",[3],0.19%
same,"viability, T/C","second compound 0.1 µM, first compound 0.000999 µM",89.8%
same,"viability, T/C","second compound 0.1 µM, first compound 0.00316 µM",110%
same,"viability, T/C","second compound 0.1 µM, first compound 0.00999 µM",109%
same,"viability, T/C",[7],72.3%
same,"viability, T/C","second compound 0.1 µM, first compound 0.0999 µM",3.79%
same,"viability, T/C",[9],0.12%
same,"viability, T/C","second compound 0.316 µM, first compound 0.000999 µM",94.1%
same,"viability, T/C","second compound 0.316 µM, first compound 0.00316 µM",115%
same,"viability, T/C","second compound 0.316 µM, first compound 0.00999 µM",117%
same,"viability, T/C",[13],75.3%
same,"viability, T/C","second compound 0.316 µM, first compound 0.0999 µM",3.89%
same,"viability, T/C",[15],0.11%
same,"viability, T/C","second compound 1 µM, first compound 0.000999 µM",104%
same,"viability, T/C","second compound 1 µM, first compound 0.00316 µM",100%
same,"viability, T/C","second compound 1 µM, first compound 0.00999 µM",126%
same,"viability, T/C",[19],88.4%
same,"viability, T/C","second compound 1 µM, first compound 0.0999 µM",4.37%
same,"viability, T/C",[21],0.14%
same,"viability, T/C","second compound 3.16 µM, first compound 0.000999 µM",96.1%
same,"viability, T/C","second compound 3.16 µM, first compound 0.00316 µM",99.2%
same,"viability, T/C","second compound 3.16 µM, first compound 0.00999 µM",119%
same,"viability, T/C",[25],76.1%
same,"viability, T/C","second compound 3.16 µM, first compound 0.0999 µM",5.12%
same,"viability, T/C",[27],0.15%
same,"viability, T/C","second compound 10 µM, first compound 0.000999 µM",99.2%
same,"viability, T/C","second compound 10 µM, first compound 0.00316 µM",113%
same,"viability, T/C","second compound 10 µM, first compound 0.00999 µM",78.6%
same,"viability, T/C",[31],27.2%
same,"viability, T/C","second compound 10 µM, first compound 0.0999 µM",1.95%
same,"viability, T/C",[33],0.22%
C=CC(=O)N1CCN(c2nc(=O)n(-c3c(C)ccnc3C(C)C)c3nc(-c4c(O)cccc4F)c(F)cc23)C(C)C1 (stereo not drawn) + Cc1cnc(CNC(=O)c2c(=O)c3ccc(N4CCCN(C)CC4)nc3n3c2sc2ccccc23)cn1,IC50,second compound 0.0316 µM,7980 nM
same,IC50,second compound 0.1 µM,< 31.6 nM
same,IC50,second compound 0.316 µM,< 31.6 nM
same,IC50,second compound 1 µM,< 31.6 nM
same,IC50,second compound 3.16 µM,< 31.6 nM
same,IC50,second compound 10 µM,< 31.6 nM
same,"viability, T/C",[1],87.4%
same,"viability, T/C",[2],59.1%
same,"viability, T/C",[3],90.8%
same,"viability, T/C",[4],55.7%
same,"viability, T/C",[5],76.5%
same,"viability, T/C",[6],44.3%
same,"viability, T/C",[7],34.2%
same,"viability, T/C",[8],38.1%
same,"viability, T/C",[9],30.2%
same,"viability, T/C",[10],34.2%
same,"viability, T/C",[11],29.9%
same,"viability, T/C",[12],26.8%
same,"viability, T/C",[13],26.6%
same,"viability, T/C",[14],28.8%
same,"viability, T/C",[15],28.4%
same,"viability, T/C",[16],24.9%
same,"viability, T/C",[17],29.5%
same,"viability, T/C",[18],20.5%
same,"viability, T/C",[19],18.8%
same,"viability, T/C",[20],27.1%
same,"viability, T/C",[21],22.6%
same,"viability, T/C",[22],21.1%
same,"viability, T/C",[23],24.3%
same,"viability, T/C",[24],19.6%
same,"viability, T/C",[25],21.8%
same,"viability, T/C",[26],21.3%
same,"viability, T/C",[27],22.5%
same,"viability, T/C",[28],19.1%
same,"viability, T/C",[29],16.7%
same,"viability, T/C",[30],16.9%
same,"viability, T/C",[31],0.19%
same,"viability, T/C",[32],0.21%
same,"viability, T/C",[33],0.19%
same,"viability, T/C",[34],0.19%
same,"viability, T/C",[35],0.2%
same,"viability, T/C",[36],0.19%
CC(C)n1c(=O)n(C)c2cnc3cc(F)c(-c4ccc(OCCCN5CCCCC5)nc4)cc3c21 + Cc1[nH]c2ccc(F)cc2c1-c1nc2c3cccnc3c3ncccc3c2[nH]1,IC50,second compound 0.0316 µM,> 10000 nM
same,IC50,second compound 0.1 µM,> 10000 nM
same,IC50,second compound 0.316 µM,> 10000 nM
same,IC50,second compound 1 µM,7830 nM
same,IC50,second compound 3.16 µM,4570 nM
same,IC50,second compound 10 µM,549 nM
same,"viability, T/C",[1],120%
same,"viability, T/C",[2],82.6%
same,"viability, T/C",[3],84.8%
same,"viability, T/C",[4],94.4%
same,"viability, T/C",[5],104%
same,"viability, T/C",[6],94.9%
same,"viability, T/C",[7],90.8%
same,"viability, T/C",[8],106%
same,"viability, T/C",[9],95.8%
same,"viability, T/C",[10],107%
same,"viability, T/C",[11],107%
same,"viability, T/C",[12],117%
same,"viability, T/C",[13],79.7%
same,"viability, T/C",[14],99.8%
same,"viability, T/C",[15],103%
same,"viability, T/C",[16],103%
same,"viability, T/C",[17],117%
same,"viability, T/C",[18],103%
same,"viability, T/C",[19],87.5%
same,"viability, T/C",[20],104%
same,"viability, T/C",[21],120%
same,"viability, T/C",[22],102%
same,"viability, T/C",[23],115%
same,"viability, T/C",[24],35%
same,"viability, T/C",[25],76.6%
same,"viability, T/C",[26],90.9%
same,"viability, T/C",[27],64.6%
same,"viability, T/C",[28],78%
same,"viability, T/C",[29],69.8%
same,"viability, T/C",[30],7.73%
same,"viability, T/C",[31],65.2%
same,"viability, T/C",[32],73.3%
same,"viability, T/C",[33],49.2%
same,"viability, T/C",[34],46.5%
same,"viability, T/C",[35],21.9%
same,"viability, T/C",[36],5.4%
